# Measurements published in ChEMBL document CHEMBL1201862, “PubChem BioAssay data set” (2004).
#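 These data come from cells grown in 96-well plates and exposed to compound for 48 hours at five concentrations. GI50 marks 50% less growth.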 Activity calls are given as the source filed them. No stated cut-off is given here; in the data, active = GI50 up to about 1.1 µM and inactive = higher.
# Legend:
# Assay in all cases: NCI tumour cell line growth inhibition, 48 h
# A549 = tested on: A549
# DU-145 = tested on: DU-145
# EKVX = tested on: EKVX
# HL-60 = tested on: HL-60
# IGROV-1 = tested on: IGROV-1
# MDA-MB-231 = tested on: MDA-MB-231
# MDA-MB-435 = tested on: MDA-MB-435
# MDA-N = tested on: MDA-N
# NCI-H226 = tested on: NCI-H226
# OVCAR-4 = tested on: OVCAR-4
# OVCAR-8 = tested on: OVCAR-8
# PC-3 = tested on: PC-3
# RPMI-8226 = tested on: RPMI-8226
# RXF 393 = tested on: RXF 393
# SF-268 = tested on: SF-268
# SR = tested on: SR
# T47D = tested on: T47D
# UACC-257 = tested on: UACC-257
# HOP-92 = tested on: HOP-92
SMILES,GI50 (A549),GI50 (DU-145),GI50 (EKVX),GI50 (HL-60),GI50 (IGROV-1),GI50 (MDA-MB-231),GI50 (MDA-MB-435),GI50 (MDA-N),GI50 (NCI-H226),GI50 (OVCAR-4),GI50 (OVCAR-8),GI50 (PC-3),GI50 (RPMI-8226),GI50 (RXF 393),GI50 (SF-268),GI50 (SR),GI50 (T47D),GI50 (UACC-257),GI50 (HOP-92)
Cc1cc(C)c(-c2no/c(=N\S(=O)(=O)c3ccc(Cl)cc3)o2)c(C)c1,> 100 µM (inactive),> 100 µM (inactive),> 100 µM (inactive),42.1 µM (inactive),> 100 µM (inactive),> 100 µM (inactive),> 100 µM (inactive),> 100 µM (inactive),> 100 µM (inactive),> 100 µM (inactive),> 100 µM (inactive),> 100 µM (inactive),37.2 µM (inactive),> 100 µM (inactive),> 100 µM (inactive),24.7 µM (inactive),93.3 µM (inactive),31.1 µM (inactive),–
COC(=O)CCN1CCN(CCO)CC1C (centres undefined),> 10 µM (inactive),> 10 µM (inactive),> 10 µM (inactive),> 10 µM (inactive),> 10 µM (inactive),> 10 µM (inactive),> 10 µM (inactive),> 10 µM (inactive),> 10 µM (inactive),> 10 µM (inactive),> 10 µM (inactive),> 10 µM (inactive),> 10 µM (inactive),> 10 µM (inactive),> 10 µM (inactive),> 10 µM (inactive),> 10 µM (inactive),> 10 µM (inactive),–
CC(O)CCNC(=O)Nc1c(C(F)(F)F)cc(-c2ccccc2)[nH]c1=O (centres undefined),> 100 µM (inactive),> 100 µM (inactive),> 100 µM (inactive),67.9 µM (inactive),> 100 µM (inactive),> 100 µM (inactive),> 100 µM (inactive),> 100 µM (inactive),> 100 µM (inactive),> 100 µM (inactive),> 100 µM (inactive),> 100 µM (inactive),> 100 µM (inactive),> 100 µM (inactive),> 100 µM (inactive),–,> 100 µM (inactive),> 100 µM (inactive),> 100 µM (inactive)
COc1cc(/C=C2\CC/C(=C\c3cc(OC)c(O)c(OC)c3)C2=O)cc(OC)c1O,3.19 µM (inactive),2.21 µM (inactive),3.13 µM (inactive),1.51 µM (inactive),0.881 µM (active),2.14 µM (inactive),1.39 µM (inactive),2.27 µM (inactive),3.94 µM (inactive),1.69 µM (inactive),3.01 µM (inactive),2.62 µM (inactive),1.04 µM (active),1.72 µM (inactive),2.3 µM (inactive),2.88 µM (inactive),2.32 µM (inactive),2.03 µM (inactive),–
O=c1c(C(c2ccco2)c2c(O)oc3ccccc3c2=O)c(O)oc2ccccc12,–,> 100 µM (inactive),47 µM (inactive),67.5 µM (inactive),17.8 µM (inactive),20 µM (inactive),31.6 µM (inactive),22.6 µM (inactive),64.9 µM (inactive),70.8 µM (inactive),27.4 µM (inactive),> 100 µM (inactive),26.1 µM (inactive),–,31.9 µM (inactive),–,43.3 µM (inactive),23.4 µM (inactive),25.5 µM (inactive)
CC(C(=O)NCNC(=O)c1ccccc1)C(=O)Nc1ccccc1 (centres undefined),> 100 µM (inactive),> 100 µM (inactive),> 100 µM (inactive),> 100 µM (inactive),> 100 µM (inactive),> 100 µM (inactive),> 100 µM (inactive),> 100 µM (inactive),> 100 µM (inactive),–,> 100 µM (inactive),> 100 µM (inactive),> 100 µM (inactive),> 100 µM (inactive),> 100 µM (inactive),–,> 100 µM (inactive),> 100 µM (inactive),> 100 µM (inactive)
O=C(CON1C(=O)c2ccccc2C1=O)c1ccccc1,> 100 µM (inactive),> 100 µM (inactive),> 100 µM (inactive),–,> 100 µM (inactive),> 100 µM (inactive),42 µM (inactive),> 100 µM (inactive),> 100 µM (inactive),77.8 µM (inactive),> 100 µM (inactive),> 100 µM (inactive),18.6 µM (inactive),55.8 µM (inactive),> 100 µM (inactive),–,22.3 µM (inactive),34.8 µM (inactive),58.6 µM (inactive)
COc1ccc2oc3c(C)cc4c(OC)nnc(OC)c4c3c2c1,9.57 µM (inactive),> 100 µM (inactive),17.9 µM (inactive),13.5 µM (inactive),–,22.9 µM (inactive),25.4 µM (inactive),18 µM (inactive),30.8 µM (inactive),34.6 µM (inactive),6.65 µM (inactive),12.8 µM (inactive),4.93 µM (inactive),58.1 µM (inactive),6.53 µM (inactive),–,29.9 µM (inactive),42 µM (inactive),10.9 µM (inactive)
